Drawing on patent US12692261B2, “Substituted heterocyclic compounds and therapeutic uses thereof” (Bayer Aktiengesellschaft, priority 2020, dated 2026), this text covers IC50 for 22 compounds.

Structures are written as SMILES.

For one test, the target named is T1, full-length human CSNK1D (Homo sapiens, UniProt P48730).
T1 construct: N-terminal Glutathion-S-Transferase (GST) and full-length human CSNK1D; purchased Life Technologies PV3665; host or cells: baculovirus infected insect cells
The experiment in a line: CSNK1D Assay (ADP-Glo, 1 μM ATP). It counts as biochemical. The note with it: Table 3, read-out: CSNK1D IC50 [mol/l] (median). In outline: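 Enzyme is N-terminal GST-tagged full-length human CSNK1D from baculovirus-infected insect cells (typically about 0.5 ng/μL), with a biotinylated peptide substrate and 1 μM ATP. Compound pre-incubated 15 min at 22° C in HEPES pH 7.5 buffer; ADP formed is read by ADP-Glo luminescence.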
A general note: ADP-Glo turns the ADP formed in a reaction into a luminescent signal.

Test [1] addresses T2, full-length human CSNK1A1 (Homo sapiens, UniProt P48729).
T2 construct: N-terminal Glutathion-S-Transferase (GST) and full-length human CSNK1A1; purchased Life Technologies PV4174; host or cells: baculovirus infected insect cells
In words: CSNK1A1 High ATP Assay (ADP-Glo, 1 mM ATP).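 Note: 30 min kinase reaction at 22 °C with 100 µM peptide substrate.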 The note with it: Table 3, read-out: CSNK1A1 high ATP assay IC50 [mol/l] (median). In kind it is biochemical. In outline:
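GST-tagged full-length human CSNK1A1 from baculovirus-infected insect cells (typically about 0.4 ng/μL), pre-incubated with compound 15 min at 22 °C. Reaction with biotinylated peptide biotin-Ahx-KRRRAL-pS-VASLPGL at 1 mM ATP. ADP formed read by ADP-Glo luminescence.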

T1 sequence (P48730 whole entry): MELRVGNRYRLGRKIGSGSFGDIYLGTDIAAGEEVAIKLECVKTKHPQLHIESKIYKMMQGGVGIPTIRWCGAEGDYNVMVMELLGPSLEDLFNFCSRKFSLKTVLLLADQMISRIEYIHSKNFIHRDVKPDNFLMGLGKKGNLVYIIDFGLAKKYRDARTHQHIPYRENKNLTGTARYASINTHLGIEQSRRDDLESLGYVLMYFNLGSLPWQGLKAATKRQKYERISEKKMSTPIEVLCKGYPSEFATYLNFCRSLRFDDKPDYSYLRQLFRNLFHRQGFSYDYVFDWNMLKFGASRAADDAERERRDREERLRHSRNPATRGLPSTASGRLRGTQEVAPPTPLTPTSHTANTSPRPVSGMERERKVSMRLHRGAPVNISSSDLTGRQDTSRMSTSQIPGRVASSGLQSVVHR
T2 sequence (P48729 whole entry): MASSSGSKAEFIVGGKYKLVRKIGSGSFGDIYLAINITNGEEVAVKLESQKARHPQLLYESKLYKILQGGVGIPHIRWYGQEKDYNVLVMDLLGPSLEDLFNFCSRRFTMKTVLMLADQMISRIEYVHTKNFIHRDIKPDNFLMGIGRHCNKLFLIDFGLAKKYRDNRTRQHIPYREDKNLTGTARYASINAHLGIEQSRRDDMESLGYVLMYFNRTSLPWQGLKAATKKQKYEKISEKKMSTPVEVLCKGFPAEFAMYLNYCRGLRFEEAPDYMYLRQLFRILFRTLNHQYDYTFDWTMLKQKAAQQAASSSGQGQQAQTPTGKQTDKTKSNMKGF

Turning to `Cc1cnc2c(-c3ccccn3)c(-c3ccnc(NC(=O)C(CC(F)F)c4ccc(F)cc4)c3)[nH]c2n1` (single isomer, unassigned; (+)) [Example 86, (+)-4,4-difluoro-2-(4-fluorophenyl)-N-{4-[3-methyl-7-(pyridin-2-yl)-5H-pyrrolo[2,3-b]pyrazin-6-yl]pyridin-2-yl}butanamide], the IC50 at full-length human CSNK1D came to 6.16 nM; in test [1], 2.89 nM.

Consider `Cc1cnc2c(-c3ccccn3)c(-c3ccnc(NC(=O)C(CC(F)F)c4ccc(F)cc4)c3)[nH]c2n1` (centres unmarked) [Example 85, 4,4-difluoro-2-(4-fluorophenyl)-N-{4-[3-methyl-7-(pyridin-2-yl)-5H-pyrrolo[2,3-b]pyrazin-6-yl]pyridin-2-yl}butanamide], for which the IC50 at full-length human CSNK1D amounted to 7.11 nM; in test [1], 4.21 nM.

For `O=C(Nc1cc(-c2[nH]c3ccc(F)nc3c2-c2ccccn2)ccn1)C(CC(F)F)c1ccc(F)cc1` (racemic) [Example 1, 4,4-difluoro-2-(4-fluorophenyl)-N-{4-[5-fluoro-3-(pyridin-2-yl)-1H-pyrrolo[3,2-b]pyridin-2-yl]pyridin-2-yl}butanamide], the figures for the IC50 (on full-length human CSNK1D; in test [1]) were 15.7 nM and 61.3 nM, respectively.

Take `O=C(Nc1cc(-c2[nH]c3ccnnc3c2-c2ccccn2)ccn1)C(CC(F)F)c1ccc(F)cc1` (racemic) [Example 65, (2RS)-4,4-difluoro-2-(4-fluorophenyl)-N-{4-[7-(pyridin-2-yl)-5H-pyrrolo[3,2-c]pyridazin-6-yl]pyridin-2-yl}butanamide]: the IC50 at full-length human CSNK1D stood at 5.62 nM; in test [1] it was 2.75 nM.

`COc1cnc2c(-c3ccccn3)c(-c3ccnc(NC(=O)C(CC(F)F)c4ccc(F)cc4)c3)[nH]c2c1` (single isomer, unassigned) [Example 83, 4,4-difluoro-2-(4-fluorophenyl)-N-{4-[6-methoxy-3-(pyridin-2-yl)-1H-pyrrolo[3,2-b]pyridin-2-yl]pyridin-2-yl}butanamide]: the IC50 at full-length human CSNK1D is 35.3 nM; in test [1], 9.86 nM.

For `O=C(Nc1cc(-c2[nH]c3nc(F)cnc3c2-c2ccccn2)ccn1)C(CC(F)F)c1ccc(F)cc1` (racemic) [Example 60, (2RS)-4,4-difluoro-2-(4-fluorophenyl)-N-{4-[3-fluoro-7-(pyridin-2-yl)-5H-pyrrolo[2,3-b]pyrazin-6-yl]pyridin-2-yl}butanamide], the IC50 at full-length human CSNK1D turned out to be 12.5 nM; in test [1], 5.81 nM.

For the compound `O=C(Nc1cc(-c2[nH]c3c(O[C@H]4CCOC4)ncnc3c2-c2ccccn2)ccn1)C(CC(F)F)c1ccc(F)cc1` (mixture of isomers) [Example 72, (2RS)-4,4-difluoro-2-(4-fluorophenyl)-N-{4-[4-{[(3S)-oxolan-3-yl]oxy}-7-(pyridin-2-yl)-5H-pyrrolo[3,2-d]pyrimidin-6-yl]pyridin-2-yl}butanamide], the figures for the IC50 (at full-length human CSNK1D; in test [1]) were 7.3 nM and 7.1 nM, respectively.

For the compound `COc1cnc2c(-c3ccccn3)c(-c3ccnc(NC(=O)C(CC(F)F)c4ccc(F)cc4)c3)[nH]c2c1` (centres unmarked) [Example 81, 4,4-difluoro-2-(4-fluorophenyl)-N-{4-[6-methoxy-3-(pyridin-2-yl)-1H-pyrrolo[3,2-b]pyridin-2-yl]pyridin-2-yl}butanamide], the results for the IC50 (on full-length human CSNK1D; in test [1]) were 5.85 nM and 4.02 nM, respectively.

In the case of `O=C(Nc1cc(-c2[nH]c3c(O[C@H]4CCOC4)ncnc3c2-c2ccccn2)ccn1)C(CC(F)F)c1ccc(F)cc1` (single isomer, unassigned) [Example 74, (2R or S)-4,4-difluoro-2-(4-fluorophenyl)-N-{4-[4-{[(3S)-oxolan-3-yl]oxy}-7-(pyridin-2-yl)-5H-pyrrolo[3,2-d]pyrimidin-6-yl]pyridin-2-yl}butanamide], the IC50 at full-length human CSNK1D is 55.4 nM; in test [1], 35.8 nM.

Turning to `O=C(Nc1cc(-c2[nH]c3ncc(F)nc3c2-c2ccccn2)ccn1)C(CC(F)F)c1ccc(F)cc1` (single isomer, unassigned) [Example 63, (2R or S)-4,4-difluoro-2-(4-fluorophenyl)-N-{4-[2-fluoro-7-(pyridin-2-yl)-5H-pyrrolo[2,3-b]pyrazin-6-yl]pyridin-2-yl}butanamide], the figures for the IC50 (at full-length human CSNK1D; in test [1]) were 3.77 nM and 1.48 nM, respectively.

For the compound `O=C(Nc1cc(-c2[nH]c3c(OCC(F)F)ncnc3c2-c2ccccn2)ccn1)C(CC(F)F)c1ccc(F)cc1` (single isomer, unassigned) [Example 79, (2R or S)—N-{4-[4-(2,2-difluoroethoxy)-7-(pyridin-2-yl)-5H-pyrrolo[3,2-d]pyrimidin-6-yl]pyridin-2-yl}-4,4-difluoro-2-(4-fluorophenyl)butanamide], the IC50 is 3.27 nM at full-length human CSNK1D and 3.1 nM in test [1].

`O=C(Nc1cc(-c2[nH]c3c(O[C@H]4CCOC4)cc(F)nc3c2-c2ccccn2)ccn1)C(CC(F)F)c1ccc(F)cc1` (single isomer, unassigned) [Example 54, (2R or S)-4,4-difluoro-N-{4-[5-fluoro-7-{[(3S)-oxolan-3-yl]oxy}-3-(pyridin-2-yl)-1H-pyrrolo[3,2-b]pyridin-2-yl]pyridin-2-yl}-2-(4-fluorophenyl)butanamide]: the IC50 at full-length human CSNK1D was determined as 3.7 nM; in test [1], 4.22 nM.

Regarding `COc1cnc2c(-c3ccccn3)c(-c3ccnc(NC(=O)C(CC(F)F)c4ccc(F)cc4)c3)[nH]c2c1` (single isomer, unassigned) [Example 82, 4,4-difluoro-2-(4-fluorophenyl)-N-{4-[6-methoxy-3-(pyridin-2-yl)-1H-pyrrolo[3,2-b]pyridin-2-yl]pyridin-2-yl}butanamide], the IC50 on full-length human CSNK1D turned out to be 3.17 nM; in test [1], 2.68 nM.

On to `O=C(Nc1cc(-c2[nH]c3ccc(Cl)nc3c2-c2ccccn2)ccn1)C(CC(F)F)c1ccc(F)cc1` (racemic) [Example 70, (2RS)—N-{4-[5-chloro-3-(pyridin-2-yl)-1H-pyrrolo[3,2-b]pyridin-2-yl]pyridin-2-yl}-4,4-difluoro-2-(4-fluorophenyl)butanamide], for which the IC50 on full-length human CSNK1D turned out to be 9.21 nM; in test [1], 5.43 nM.

Consider `O=C(Nc1cc(-c2[nH]c3c(OC[C@@H]4COCCO4)cc(F)nc3c2-c2ccccn2)ccn1)C(CC(F)F)c1ccc(F)cc1` (single isomer, unassigned) [Example 58, (2R or S)—N-{4-[7-{[(2S)-1,4-dioxan-2-yl]methoxy}-5-fluoro-3-(pyridin-2-yl)-1H-pyrrolo[3,2-b]pyridin-2-yl]pyridin-2-yl}-4,4-difluoro-2-(4-fluorophenyl)butanamide], for which the IC50 on full-length human CSNK1D came out at 3.03 nM; in test [1], 3.56 nM.

In the case of `O=C(Nc1cc(-c2[nH]c3c(OCC(F)F)ncnc3c2-c2ccccn2)ccn1)C(CC(F)F)c1ccc(F)cc1` (racemic) [Example 78, (2RS)—N-{4-[4-(2,2-difluoroethoxy)-7-(pyridin-2-yl)-5H-pyrrolo[3,2-d]pyrimidin-6-yl]pyridin-2-yl}-4,4-difluoro-2-(4-fluorophenyl)butanamide], the IC50 amounted to 5.15 nM at full-length human CSNK1D and 5.16 nM in test [1].

In the case of `O=C(Nc1cc(-c2[nH]c3c(OCC4CCCO4)cc(F)nc3c2-c2ccccn2)ccn1)C(CC(F)F)c1ccc(F)cc1` (racemic) [Example 61, (2RS)-4,4-difluoro-N-{4-[5-fluoro-7-{[(2RS)-oxolan-2-yl]methoxy}-3-(pyridin-2-yl)-1H-pyrrolo[3,2-b]pyridin-2-yl]pyridin-2-yl}-2-(4-fluorophenyl)butanamide], the IC50 on full-length human CSNK1D was found to be 8.79 nM; in test [1] it was 11.1 nM.

For `O=C(Nc1cc(-c2[nH]c3ccnnc3c2-c2ccccn2)ccn1)C(CC(F)F)c1ccc(F)cc1` (single isomer, unassigned) [Example 67, (2R or S)-4,4-difluoro-2-(4-fluorophenyl)-N-{4-[7-(pyridin-2-yl)-5H-pyrrolo[3,2-c]pyridazin-6-yl]pyridin-2-yl}butanamide], the values for the IC50 (on full-length human CSNK1D; in test [1]) were 29.7 nM and 22 nM, respectively.

For `O=C(Nc1cc(-c2[nH]c3cc(Cl)cnc3c2-c2ccccn2)ccn1)C(CC(F)F)c1ccc(F)cc1` (single isomer, unassigned) [Example 88, (+)—N-{4-[6-chloro-3-(pyridin-2-yl)-1H-pyrrolo[3,2-b]pyridin-2-yl]pyridin-2-yl}-4,4-difluoro-2-(4-fluorophenyl)butanamide], the results for the IC50 (at full-length human CSNK1D; in test [1]) were 7.42 nM and 4.72 nM, respectively.

For the compound `O=C(Nc1cc(-c2[nH]c3ncc(F)nc3c2-c2ccccn2)ccn1)C(CC(F)F)c1ccc(F)cc1` (single isomer, unassigned) [Example 64, (2R or S)-4,4-difluoro-2-(4-fluorophenyl)-N-{4-[2-fluoro-7-(pyridin-2-yl)-5H-pyrrolo[2,3-b]pyrazin-6-yl]pyridin-2-yl}butanamide], the results for the IC50 (on full-length human CSNK1D; in test [1]) were 40.4 nM and 23 nM, respectively.

As to `O=C(Nc1cc(-c2[nH]c3c(OC[C@H]4COCCO4)cc(F)nc3c2-c2ccccn2)ccn1)C(CC(F)F)c1ccc(F)cc1` (single isomer, unassigned) [Example 52, (2R or S)—N-{4-[7-{[(2R)-1,4-dioxan-2-yl]methoxy}-5-fluoro-3-(pyridin-2-yl)-1H-pyrrolo[3,2-b]pyridin-2-yl]pyridin-2-yl}-4,4-difluoro-2-(4-fluorophenyl)butanamide], the IC50 at full-length human CSNK1D worked out at 23.4 nM; in test [1], 17.2 nM.

Regarding `O=C(Nc1cc(-c2[nH]c3ncc(F)nc3c2-c2ccccn2)ccn1)C(CC(F)F)c1ccc(F)cc1` (racemic) [Example 62, (2RS)-4,4-difluoro-2-(4-fluorophenyl)-N-{4-[2-fluoro-7-(pyridin-2-yl)-5H-pyrrolo[2,3-b]pyrazin-6-yl]pyridin-2-yl}butanamide], the IC50 was 8.9 nM at full-length human CSNK1D and 3.92 nM in test [1].
